Source: US10968193B2, “Antidiabetic bicyclic compounds” (Merck Sharp & Dohme Corp., priority 2014, dated 2021)

molecular target: T1, human GPR40 (Homo sapiens, UniProt O14842); assay: Inositol Phosphate Turnover (IP1) Assay 3; assay type: cell-based; conditions: HEK cells stably expressing human GPR40
T1 construct: expressed in transfected cells; host or cells: HEK cells stably expressing the aequorin reporter
Method: Human and mouse GPR40 stable cell-lines were generated in CHO cells stably expressing NFAT BLA (Beta-lactamase). A human GPR40 stable cell-line was generated in HEK cells stably expressing the aequorin expressing reporter. The expression plasmids were transfected using lipofectamine (Life Technologies) following manufacturer's instructions. Stable cell-lines were generated following drug selection.
Inositol Phosphate Turnover (IP1) Assay 3:
The assay was performed in 384-well format. HEK cells stably expressing human GPR40 were plated at 7500 cells per well in growth medium (DMEM/10% fetal calf serum). Cell plates were then incubated 16 hours at 37 degrees in a 5% CO2 incubator.
Measurement of Inositol Phosphate Turnover (IP) was performed using the CisBio IP-One kit (Part number 62IPAPEB). After the 16 hour incubation, the growth media was removed by centrifugation using the BlueWasher (AusWasher GUI Ver. v1.0.1.8) Protocol #21—“Light Dry” and 10 ul of stimulation buffer (prepared as described in the kit) was added to each well. In a separate plate, compounds were diluted in DMSO (200-fold over the final concentration in the assay well) and 50 nl was acoustically transferred to the appropriate well in the assay cell plate. The plates were then incubated for 60 minutes at 37 degrees in a 5% CO2 incubator. 10 ul of detection buffer (also prepared as described in the IP-One kit) was added to each well and the plates were incubated at rt for 60 minutes in the dark. The plates were then read in a Perkin Elmer EnVision or equivalent reader able to measure FRET. Fluorescent ratio of emission at 665 and 620 nm was then converted to IP1 concentration by back calculating from an IP1 standard curve prepared at the time of the assay. Data is normalized to % activity using a reference compound and EC50s determined using a standard 4-parameter fit.

T1 sequence (O14842 whole entry): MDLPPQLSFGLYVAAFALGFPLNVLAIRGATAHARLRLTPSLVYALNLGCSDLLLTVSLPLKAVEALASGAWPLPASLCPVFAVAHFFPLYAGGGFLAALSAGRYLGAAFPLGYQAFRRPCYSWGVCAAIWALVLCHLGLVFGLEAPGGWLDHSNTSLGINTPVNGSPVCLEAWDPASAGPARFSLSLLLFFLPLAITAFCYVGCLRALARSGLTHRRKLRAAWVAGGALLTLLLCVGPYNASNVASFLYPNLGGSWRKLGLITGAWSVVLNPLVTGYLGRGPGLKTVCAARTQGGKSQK

**Q.** For `COc1cc(-c2ccc(C3CCc4ccc([C@H](C5CC5)[C@H](C)C(=O)O)cc4O3)c(CN3CCCC3)c2)c(F)cn1` (single isomer, unassigned) [Example 123b], which EC50 is on record?
**A.** 1.4 nM

**Q.** How did the EC50 turn out when `COc1cc(-c2ccc(C3CCc4ccc([C@H](C5CC5)[C@H](C)C(=O)O)cc4O3)cc2CN2CCC(C)(C)C2)c(F)cn1` (stereo partly shown) [Example 266] was run?
**A.** 0.1 nM

**Q.** Which EC50 does the source give for `C[C@H](C(=O)O)[C@H](c1ccc2c(c1)OC(c1ccc(-c3cc(O)ncc3C#N)c(CN3CCCCC34CC4)c1)CC2)C1CC1` (stereo partly shown) [Example 295] here?
**A.** 85 nM

**Q.** With `CCC1CCCN1Cc1cc(C2CCc3ccc([C@H](C4CC4)[C@H](C)C(=O)O)cc3O2)ccc1-c1cc(OC)ncc1F` (single isomer, unassigned) [Example 267a] as the compound, how does the EC50 read?
**A.** 0.7 nM

**Q.** With `CCN(C(C)C)C(C)c1cc(C2CCc3ccc([C@H](C4CC4)[C@H](C)C(=O)O)cc3O2)ccc1-c1ccnc(OC)c1` (single isomer, unassigned) [Example 248] as the compound, how does the EC50 read?
**A.** 11.5 nM

**Q.** For `COc1cc(-c2ccc(C3CCc4ccc([C@H](C5CCC5)[C@H](C)C(=O)O)cc4O3)cc2CN2CCCCC23CC3)c(F)cn1` (single isomer, unassigned) [Example 106], which EC50 is on record?
**A.** 0.2 nM

**Q.** `COc1cc(-c2ccc([C@H]3CCc4ccc([C@H](C5CC5)[C@H](C)C(=O)O)cc4O3)cc2CN(C(C)C)C(C)C)c(F)cn1` [Example 170] was tested. Which EC50 did it give?
**A.** 0.07 nM

**Q.** Which EC50 does the source give for `COc1cc(-c2ccc(C3CCc4ccc([C@H](C5CC5)[C@H](C)C(=O)O)c(F)c4O3)cc2CN2CCC[C@@H]2C)c(F)cn1` (single isomer, unassigned) [Example 212] here?
**A.** 3.1 nM

**Q.** `COc1cc(-c2ccc(C3CCc4ccc([C@H](C5CC5)[C@H](C)C(=O)O)cc4O3)cc2CN(C)C(C)(C)C)c(C#N)cn1` (single isomer, unassigned) [Example 193] was tested. Which EC50 did it give?
**A.** 1.5 nM

**Q.** For `COc1cc(-c2ccc(C3CCc4ccc([C@H](C5CC5)[C@H](C)C(=O)O)cc4O3)c(F)c2CN2CCCC2)c(F)cn1` (single isomer, unassigned) [Example 220], which EC50 is on record?
**A.** 7.2 nM

**Q.** With `COc1cc(-c2ccc(C3CCc4ccc([C@H](C5CC5)[C@H](C)C(=O)O)cc4O3)c(CN(C)C(C)(C)C)c2)c(F)cn1` (single isomer, unassigned) [Example 125a] as the compound, how does the EC50 read?
**A.** 0.3 nM

**Q.** Which EC50 does the source give for `COc1cc(-c2ccc(C3CCc4ccc([C@H](C5CC5)[C@H](C)C(=O)O)cc4O3)cc2CN2C3CCCC2CC3)c(F)cn1` (stereo partly shown) [Example 270] here?
**A.** 0.9 nM

**Q.** With `COc1cc(-c2cc(F)c(C3CCc4ccc([C@H](C5CC5)[C@H](C)C(=O)O)cc4O3)cc2CN(C(C)C)C(C)C)ccn1` (single isomer, unassigned) [Example 183] as the compound, how does the EC50 read?
**A.** 0.35 nM

**Q.** `COc1cc(-c2ccc(C3CCc4ccc([C@H](C5CC5)[C@H](C)C(=O)O)cc4O3)cc2CN2[C@H](C)CCC[C@@H]2C)ccn1` (stereo partly shown) [Example 239] was tested. Which EC50 did it give?
**A.** 1.1 nM

**Q.** `CCN(CC)Cc1cc(C2CCc3ccc([C@H](C4CC4)[C@H](C)C(=O)O)cc3O2)ccc1-c1ccnc(OC)c1` (single isomer, unassigned) [Example 221] was tested. Which EC50 did it give?
**A.** 14 nM

**Q.** `COc1cc(-c2ccc(C3CCc4ccc([C@H](C5CC5)[C@H](C)C(=O)O)cc4O3)c(CN3CCCC3)c2)c(F)cn1` (single isomer, unassigned) [Example 123a] was tested. Which EC50 did it give?
**A.** 91 nM

**Q.** Which EC50 does the source give for `CCN(CC)C(C)c1cc(C2CCc3ccc([C@H](C4CC4)[C@H](C)C(=O)O)cc3O2)ccc1-c1cc(OC)ncc1F` (single isomer, unassigned) [Example 244] here?
**A.** 0.43 nM

**Q.** For `COc1cc(-c2ccc(C3CCc4ccc([C@H](C5CC5)[C@H](C)C(=O)O)cc4O3)c(CN3[C@H](C)CC[C@@H]3C)c2)ccn1` (single isomer, unassigned) [Example 122a], which EC50 is on record?
**A.** 3.3 nM

**Q.** How did the EC50 turn out when `COc1cc(-c2ccc(C3CCc4ccc([C@H](C5CC5)[C@H](C)C(=O)O)c(F)c4O3)cc2CN2CCCCC2)c(F)cn1` (single isomer, unassigned) [Example 201] was run?
**A.** 4.4 nM

**Q.** How did the EC50 turn out when `COc1cc(-c2ccc(C3CCc4ccc([C@H](C5CCC5)[C@H](C)C(=O)O)cc4O3)cc2CN2CCCC2C)c(F)cn1` (single isomer, unassigned) [Example 101] was run?
**A.** 0.25 nM

**Q.** How did the EC50 turn out when `COc1cc(-c2ccc(C3CCc4ccc([C@H](C5CC5)[C@H](C)C(=O)O)cc4O3)c(CN3CCCCC3(C)C)c2)ccn1` (single isomer, unassigned) [Example 117b] was run?
**A.** 24 nM

**Q.** For `COc1cc(-c2ccc(C3CCc4ccc([C@H](C5CC5)[C@H](C)C(=O)O)cc4O3)cc2CN2[C@@H](C)CCC[C@@H]2C)c(F)cn1` (stereo partly shown) [Example 231], which EC50 is on record?
**A.** 0.16 nM

**Q.** How did the EC50 turn out when `CCOc1cc(-c2ccc(C3CCc4ccc([C@H](C5CC5)[C@H](C)C(=O)O)cc4O3)cc2CN2CCCC2)c(F)cn1` (single isomer, unassigned) [Example 173] was run?
**A.** 50 nM

**Q.** How did the EC50 turn out when `CCOc1cc(-c2ccc(C3CCc4ccc([C@H](C5CC5)[C@H](C)C(=O)O)cc4O3)cc2CN(CC)CC)c(F)cn1` (single isomer, unassigned) [Example 171, (2S, 3R)-3-cyclopropyl-3-((R or S)-2-(3-((diethylamino)methyl)-4-(2-ethoxy-5-fluoropyridin-4-yl)phenyl)chroman-7-yl)-2-methylpropanoic acid] was run?
**A.** 2.5 nM

**Q.** `CCN(CC)Cc1cc(C2CCc3ccc([C@H](C4CC4)[C@H](C)C(=O)O)c(F)c3O2)ccc1-c1cc(OC)ncc1F` (single isomer, unassigned) [Example 205] was tested. Which EC50 did it give?
**A.** 2.4 nM

**Q.** `CCN(Cc1cc(C2CCc3ccc([C@H](C4CC4)[C@H](C)C(=O)O)cc3O2)ccc1-c1ccnc(OC)c1)C(C)(C)C` (stereo partly shown) [Example 236] was tested. Which EC50 did it give?
**A.** 1.3 nM

**Q.** Which EC50 does the source give for `COc1cc(-c2ccc(C3CCc4ccc([C@H](C5CC5)[C@H](C)C(=O)O)cc4O3)c(CN(C)C(C)(C)C)c2)ccn1` (mixture of isomers) [Example 114] here?
**A.** 5 nM

**Q.** `COc1cc(-c2ccc(C3CCc4ccc([C@H](C5CC5)[C@H](C)C(=O)O)cc4O3)c(CN3CCC[C@@H]3C)c2)ccn1` (single isomer, unassigned) [Example 118b] was tested. Which EC50 did it give?
**A.** 109 nM

**Q.** `COc1cc(-c2ccc(C3CCc4ccc([C@H](C5CC5)[C@H](C)C(=O)O)cc4O3)cc2CN2CC3CC3C2)c(C#N)cn1` (single isomer, unassigned) [Example 192] was tested. Which EC50 did it give?
**A.** 0.3 nM

**Q.** For `CCN(Cc1cc(-c2ccnc(OC)c2)ccc1C1CCc2ccc([C@H](C3CC3)[C@H](C)C(=O)O)cc2O1)C(C)C` (single isomer, unassigned) [Example 113a], which EC50 is on record?
**A.** 0.4 nM

**Q.** Which EC50 does the source give for `COc1cc(-c2ccc([C@@H]3CCc4ccc([C@H](C5CC5)[C@H](C)C(=O)O)cc4O3)cc2CN(C)C(C)(C)C)c(F)cn1` [Example 226, Sodium (2S,3R)-3-((S)-2-(3-((tert-butyl(methyl)amino)methyl)-4-(5-fluoro-2-methoxypyridin-4-yl)phenyl)chroman-7-yl)-3-cyclopropyl-2-methylpropanoate] here?
**A.** 1.1 nM

**Q.** With `CCN(CC)Cc1cc(C2CCc3ccc([C@H](C4CC4)[C@H](C)C(=O)O)cc3O2)ncc1-c1cc(OC)ncc1F` (single isomer, unassigned) [Example 87] as the compound, how does the EC50 read?
**A.** 6.6 nM

**Q.** Which EC50 does the source give for `COc1cc(-c2ccc(C3CCc4ccc([C@H](C5CC5)[C@H](C)C(=O)O)c(F)c4O3)cc2CN2CCCC2)c(F)cn1` (single isomer, unassigned) [Example 199] here?
**A.** 5.7 nM

**Q.** For `COc1cc(-c2ccc(C3CCc4ccc([C@H](C5CC5)[C@H](C)C(=O)O)cc4O3)cc2CN2[C@H](C)CC[C@@H]2C)c(F)cn1` (stereo partly shown) [Example 251], which EC50 is on record?
**A.** 0.3 nM

**Q.** `CCOc1cc(-c2ccc(C3CCc4ccc([C@H](C5CC5)[C@H](C)C(=O)O)cc4O3)c(CN(C)C(C)(C)C)c2)c(F)cn1` (single isomer, unassigned) [Example 132a] was tested. Which EC50 did it give?
**A.** 1.8 nM

**Q.** With `COc1cc(-c2ccc(C3CCc4ccc([C@H](C5CC5)[C@H](C)C(=O)O)cc4O3)cc2CN(C(C)C)C(C)(C)C)ccn1` (stereo partly shown) [Example 237] as the compound, how does the EC50 read?
**A.** 0.17 nM

**Q.** With `COc1cc(-c2ccc(C3CCc4ccc([C@H](C5CC5)[C@H](C)C(=O)O)cc4O3)cc2CN2CCC3CC32)c(F)cn1` (single isomer, unassigned) [Example 256a] as the compound, how does the EC50 read?
**A.** 0.6 nM

**Q.** `COc1cc(-c2ccc(C3CCc4ccc([C@H](C5CC5)[C@H](C)C(=O)O)cc4O3)cc2CN2CCC[C@@H]2C)ccn1` (stereo partly shown) [Example 279] was tested. Which EC50 did it give?
**A.** 30 nM

**Q.** For `CCOc1cc(-c2ccc(C3CCc4ccc([C@H](C5CC5)[C@H](C)C(=O)O)cc4O3)cc2CN(CC)CC)c(Cl)cn1` (single isomer, unassigned) [Example 214], which EC50 is on record?
**A.** 12 nM

**Q.** Which EC50 does the source give for `COc1cc(-c2cc(F)c(C3CCc4ccc([C@H](C5CC5)[C@H](C)C(=O)O)cc4O3)cc2CN2CCCCC23CC3)ccn1` (single isomer, unassigned) [Example 188] here?
**A.** 0.7 nM

**Q.** How did the EC50 turn out when `COc1cc(-c2ccc(C3CCc4ccc([C@H](C5CC5)[C@H](C)C(=O)O)cc4O3)cc2CN2CCC3(CC3)C2)c(F)cn1` (stereo partly shown) [Example 263] was run?
**A.** 0.8 nM

**Q.** How did the EC50 turn out when `COc1cc(-c2ccc(C3CCc4ccc([C@H](C5CC5)[C@H](C)C(=O)O)cc4O3)cc2CN2[C@H](C)CC[C@@H]2C)ccn1` (stereo partly shown) [Example 275] was run?
**A.** 2.8 nM

**Q.** With `COc1cc(-c2ccc(C3CCc4ccc([C@H](C5CC5)[C@H](C)C(=O)O)cc4O3)c(CN(C(C)C)C(C)C)c2)ccn1` (single isomer, unassigned) [Example 115a] as the compound, how does the EC50 read?
**A.** 0.1 nM
